Measurements from US8273340B2, “Methods and compositions for attracting or repelling cockroaches” (The United States of America, as represented by the …, priority 2008, dated 2012).

Assays:
[1] = tested on: German roaches (B. germanica); assay: Two-harborage arena bioassay of sustained release polymer formulations; format: in vivo; settings: counted after 24 hours
Excerpt: Evaluation of sustained release formulations: Three cockroach attractants (methyl tiglate, butyl heptanoate, and propyl proprionate) were formulated in one or more polymer formulations (Urethane, Pellethane, Santoprene, and/or Polyethylene) as indicated in Table 4.A sweater box (1.5×2.0×0.5 ft) provided the test arena. The sides of the arena were coated with a blend of mineral oil and Vaseline petroleum jelly. The tops of two 8 oz paper ice cream cups were tapped to the arena floor with masking tape and, prior to the addition of the test cockroaches, inverted cups without holes were fixed to the tapped lids. Twenty-five laboratory reared late stage nymphs or adult male German roaches (B. germanica), starved for 72 hrs, were added to the arena and allowed to calm down (ca. 1 hour). The starting inverted ice cream cups were carefully removed and each ice cream cup top was then supplied with a water tube (1.5 ml scintillation vial with water and stoppered with cotton), one lab chew food pellet, and either a test attractant polymer formulation or the corresponding polymer blank control. […] The cups were oriented so that the holes were facing each other. The number of roaches that sought harborage in the cups was counted after 24 hours by plugging the entrance holes with cotton, the roaches inside euthanized, and the numbers in each cup counted.

[2] = Release rate of attractants from sustained release delivery systems; format: physicochemical
Excerpt: Several secondary release rate control systems were developed. The first was a sachet that can contain the above polymer releasing system. This sachet can be either polyvinylidine chloride (PvdC) barrier film (e.g., Saranex™) enclosed in a thermally sealed metalized polyethylene container to eliminate release of active compounds, or a metalized polyethylene sachet with a removable seal that covers a vapor diffusion controlling orifice which when removed begins the release process from the internal polymer/carrier, or metalized polyethylene sachet which contains a small vial with a vapor controlling orifice. In the case of the Saranex™ sachet, the actual porosity of the Saranex™ control release is based on type of PVdC and thickness of the film. In the case of the metalized polyethylene sachet and internal polymer/carrier, a specific orifice size controlled the rate of diffusion of the active from the device, as shown in FIG. 4. An additional means of containing and reducing the release of the liquid active compounds and providing a solid support for use in the above delivery system involved sorbing the active compounds into an inert absorbent such as Membrana GmbH's expanded microporous polyolefin Accurel® MP100 which are granular or pelletized polyethylenes that have 10-50 μm air pockets throughout and can contain up to 90% of their volume in active compounds . MP100 was easily loaded with 80% by wt active ingredient due to its porosity. […] Thus, placement into the metalized polyethylene sachet with its diffusion regulating orifice was required.
Active compounds (1 gm active in Accurel® MP100) were sealed within the metalized polyethylene sachet, and a 0.5 mm hole placed into the film, and sealed until use with a metalized tape. Release rates for propyl propanoate, methyl tiglate, and butyl hexanoate were calculated at 15.5, 11.4, and 4.8 mg/day, respectively. Longevity of this system was calculated to be 64, 87, and 208 days, respectively.
Release rates for the thermoset urethane (Flexane® 80P) and synthetic rubbers systems ranged from 0.055 to 0.2 mg/cm^2/day, depending on durometer/hardness that is a measure of polymer crosslinking. Best results were obtained at durometer/hardness levels above D30. Release rates for the Saranex system without the release control provided by the metalized polyethylene and diffusion control orifice were 187, 236, and 7 mg/day for propyl propanoate, methyl tiglate, and butyl hexanoate, respectively.

[3] = tested on: Male cockroaches (Blattela germanica); assay: Y-tube olfactometer bioassay of controlled release pellets aged in a fume hood; format: in vivo; settings: for Percent Response: mean of 3 replicates; for activity in the olfactometer (in words): charcoal as the absorbent, after one hour in the fume hood
Excerpt: Olfactometer Bioassay: The Y-tube bioassay apparatus was similar to that described by Vander Meer et al. (J. Chem. Ecol., 14: 825-838 (1988)). Compressed air (breathing-air quality) was passed into the two choice arms at 0.2 l/min for a total flow of 0.4 l/min. Flow rates were adjusted and controlled by two flow meters (Omega Engineering, Inc.). All tubing carrying the air was either copper or Teflon. Prior to evaluating treatment samples, a positive standard was put through the bioassay procedure. The standard was initially an attractive food material (grape flavoring concentrate used at 0.33%) and later 0.5% (w/v) methyl tiglate, one of the compounds of the present invention, in white, light mineral oil (Aldrich Chemical Co.). […] Test samples (10.0 μl) and the solvent blank (mineral oil, 10.0 μl) were applied to filter paper strips (0.3×1.0 cm, Whatman No. 1) and then each was placed into one of the two choice arms. Male cockroaches (Blattela germanica) were prepared for their introduction into the olfactometer by placing them in a Teflon tube (3 cm×0.8 cm) that had one end blocked with a piece of copper mesh screen. The open end of tube was closed with a lightly attached piece of tape. The cockroaches were introduced individually by removing the tape and quickly inserting the Teflon tube into the entrance arm of the olfactometer. […] The initial choice of the cockroach was recorded. The cockroach was removed and the process was repeated 10 times with the same test and blank samples. The 10 choices usually required less than 5 minutes to complete. After each set of 10 cockroaches had made their choice, the olfactometer was rinsed with acetone, dried, and reassembled for the next test. Each sample was retested with the same cockroaches, but with the sample and control in reverse positions. The sum of the results from the two tests represented one replicate. This procedure minimized bias inherent in the apparatus. A null hypothesis of equal numbers of cockroaches in each arm was tested with chi-square analysis. […] Results in-between were neutral.
Controlled Release Formulations: Four esters found to be significant cockroach attractants were selected for evaluation in controlled release formulations-developed by BioGuard, Inc. Six controlled release formulations from BioGuard were evaluated in the olfactometer. The attractants were methyl tiglate, butyl hexanoate, propyl propanoate, and butyl heptanoate. The attractants were absorbed to either coconut shell charcoal pellets or potassium substituted crystalline zeolite pellets, and then coated with water soluble methylcellulose. The powdered methyl cellulose was dissolved in 80° C. water until saturation, cooled to approx 25° C., the pellets immersed into the solution for a 30 sec, and removed and rapidly air dried with 30° C. pre-dried air. The end products were pellets (charcoal=2 mm×4 mm dia.; molecular sieve=4 mm×1.5 mm dia.). […] A single pellet was used in place of the filter paper described above. The control side was left blank.

[4] = 1 gm active in Accurel MP100 in metalized polyethylene sachet with 0.5 mm hole
[5] = 1 gm active in Accurel MP100 in metalized polyethylene sachet with 0.5 mm hole, FIG. 3
[6] = Saranex system without metalized polyethylene and diffusion control orifice
[7] = Charcoal absorbent, methylcellulose coated pellet, aged 1 hour in fume hood
[8] = Molecular Sieve absorbent, methylcellulose coated pellet, aged 1 hour in fume hood

SMILES	attraction to treatment harborage versus polymer blank control (in words) ([1]; formulated with Santoprene)	Longevity of the release system [2, 4] [days]	Release rate [2, 5] [mg/day]	Release rate [2, 6] [mg/day]	Percent Response [3, 7] [%]	Percent Response [3, 8] [%]	activity in the olfactometer (in words) [3]	Percent Response ([3]; charcoal controlled release formulation, aged 24 hours in fume hood) [%]	Percent Response ([3]; charcoal controlled release formulation, aged 48 hours in fume hood) [%]	attraction to treatment harborage versus polymer blank control (in words) ([1]; formulated in urethane)
C/C=C(\C)C(=O)OC [methyl tiglate, methyl ester of tiglic acid (trans-2-methyl-2-butenoic acid (methyl tiglate))]	significant attraction and aggregation	87	11.4	236	76.6	50.0	significantly active	66.7	61.6	–
CCCOC(=O)CC [Propyl Propanoate]	–	64	15.5	187	65.0	50.0	significantly active	–	–	significant attraction and subsequent aggregation
